Results from patent publication US20210060121A1, “NOVEL ANTIBIOTICS AND METHODS OF USING THEM” (priority 2018, published 2021).
Converted amounts (≈) assume the structure as drawn.

Legend:
[1] = system: MRSA and SA strains; assay: MIC, summary over S. aureus strains; format: cell-based, Staphylococcus aureus
Experimental: (§1) Susceptibility to teixobactin and its analogues was tested on the selected Gram-positive strains using Tecan Freedom EVO high-throughput automated platform, following the standard broth dilution method as described by the Clinical and Laboratory Standards Institute ^3. MICS were determined according to CLSI guideline.

[2] = system: MRSA(SA11I4); format: cell-based, Staphylococcus aureus
Experimental: as §1

[3] = system: SA (ATCC29213); format: cell-based, Staphylococcus aureus
Experimental: as §1

[4] = system: Staphylococcus aureus strain ATCC43300; assay: Wax worm survival model infected with S. aureus; format: in vivo, Galleria mellonella
From the text: FIG. 2. In vivo antibacterial activities of certain antibiotics of the invention. Efficacy of teixobactin and certain antibiotics of the invention for treating infections caused by Staphylococcus aureus strain ATCC43300 was studied in wax worm larvae (Galleria mellonella) model. PBS, control group without infection and treated with PBS: All other groups (20 each group) were infected with 10^7 CFU of S. aureus strain ATCC43300 followed by no treatment or treatment with one dose of vancomycin at 10 mg/kg (A-10) or 50 mg/kg (A-50), teixobactin at 10 mg/kg (B-10) or 50 mg/kg (B-50), or one dose of the representative analogue, Chg10-teixobactin, at 10 mg/kg (C-10) or 50 mg/kg (C-50).
Exemplary in vivo antibacterial activity: Chg10-Teixobactin was studied in wax worm survival models infected with S. aureus strain ATCC43300. Teixobactin were used as controls. […] At a dose of 50 mg/kg, Chg10-Teixobactin protected 100% infected wax worms (See FIG. 2).

[5] = system: MRSA SA86; format: cell-based, Staphylococcus aureus
Experimental: as §1

[6] = system: MRSA SA88; format: cell-based, Staphylococcus aureus
Experimental: as §1

[7] = system: MRSA SA11; format: cell-based, Staphylococcus aureus
Experimental: as §1

[8] = system: Streptococcus faecalis and Enterococcus strains; assay: MIC, text summary over Streptococcus faecalis and Enterococcus; format: cell-based; conditions: against Streptococcus faecalis and Enterococcus strains; Table 2
Experimental: as §1

[9] = system: Streptococcus faecalis SF; format: cell-based
Experimental: as §1

[10] = system: Enterococcus ET6; format: cell-based
Experimental: as §1

[11] = system: Enterococcus ET60; format: cell-based
Experimental: as §1

[12] = system: Enterococcus ATCCET; format: cell-based
Experimental: as §1

Compound | Antibacterial activity compared with teixobactin ([1]; MRSA clinical isolate and MSSA ATCC29213, from MICs) | Minimum inhibitory concentration (MIC) MRSA(SA11I4) [2] [µg/mL] | Minimum inhibitory concentration (MIC) SA (ATCC29213) [3] [µg/mL] | Infected wax worms protected ([4]; one dose of 50 mg/kg, wax worms infected with S. aureus ATCC43300) [%] | In vivo antibacterial activities, teixobactin as control ([4]; one dose treatment, wax worm survival model, S. aureus ATCC43300) | Activities, times lower than teixobactin ([1]; against MRSA and SA strains, Table 2) | Minimum inhibitory concentration (MIC) MRSA SA86 [5] [µg/mL] | Minimum inhibitory concentration (MIC) MRSA SA88 [6] [µg/mL] | Minimum inhibitory concentration (MIC) MRSA SA11 [7] [µg/mL] | Activities compared with teixobactin [8] | Minimum inhibitory concentration (MIC) Streptococcus faecalis SF [9] [µg/mL] | Minimum inhibitory concentration (MIC) Enterococcus ET6 [10] [µg/mL] | Minimum inhibitory concentration (MIC) Enterococcus ET60 [11] [µg/mL] | Minimum inhibitory concentration (MIC) Enterococcus ATCCET [12] [µg/mL]
CC[C@@H](C)[C@@H](NC(=O)[C@@H](CCC(N)=O)NC(=O)[C@H](CO)NC(=O)[C@@H](NC(=O)[C@@H](Cc1ccccc1)NC)[C@@H](C)CC)C(=O)N[C@H](C(=O)N[C@@H](CO)C(=O)N[C@H]1C(=O)N[C@@H](C)C(=O)N[C@@H](C2CCCCC2)C(=O)N[C@@H]([C@@H](C)CC)C(=O)O[C@H]1C)[C@@H](C)CC [Chg10-teixobactin] | two times higher activities than teixobactin | 1 (≈ 0.815 µM) | 0.25 (≈ 0.204 µM) | 100 | improved antibacterial activities |  |  |  |  |  |  |  |  | 
CC[C@@H](C)[C@@H](NC(=O)[C@@H](CCC(N)=O)NC(=O)[C@@H](NC(=O)[C@@H](NC(=O)[C@@H](Cc1ccccc1)NC)[C@@H](C)CC)[C@@H](C)CC)C(=O)N[C@H](C(=O)N[C@@H](CO)C(=O)N[C@H]1C(=O)N[C@@H](C)C(=O)N[C@@H](C2CCCCC2)C(=O)N[C@@H]([C@@H](C)CC)C(=O)O[C@H]1C)[C@@H](C)CC [T88] |  | 8 (≈ 6.38 µM) | 4 (≈ 3.19 µM) |  |  | about 4 times | 4 (≈ 3.19 µM) | 4 (≈ 3.19 µM) | 4 (≈ 3.19 µM) | better than teixobactin | 1 (≈ 0.798 µM) | 2 (≈ 1.6 µM) | 1 (≈ 0.798 µM) | 2 (≈ 1.6 µM)
